In US6649609B2, “Benzimidazole derivatives and pharmaceutical compositions comprising these compounds” (Neurosearch A/S, priority 1999, dated 2003):
Counter-ions that a name gives are not always drawn.

Legend:
[1] = target: benzodiazepine receptor (GABAA receptor complex), cerebral cortex membranes; assay: In vitro inhibition of 3H-flunitrazepam (3H-FNM) binding; details: inhibition of specific 3H-FNM (1 nM) binding, rat cerebral cortex membranes
Method: The GABA recognition site and the benzodiazepine modulatory unit can selectively be labelled with ^3H-muscimol and ^3H-flunitrazepam, respectively.
13A: In vitro inhibition of ^3H-flunitrazepam (^3H-FNM) binding
Preparations are performed at 0-4° C. unless otherwise indicated. Cerebral cortex from male Wistar rats (150-200 g) is homogenised for 5-10 sec in 20 ml Tris-HCl (30 mM, pH 7.4) using an Ultra-Turrax homogeniser. The suspension is centrifuged at 27,000× g for 15 min and the pellet is washed three times with buffer (centrifuged at 27,000× g for 10 min). The washed pellet is homogenized in 20 ml of buffer and incubated on a water bath (37° C.) for 30 min to remove endogenous GABA and then centrifuged for 10 min at 27,000× g. The pellet is then homogenized in buffer and centrifuged for 10 min at 27,000× g. The final pellet is resuspended in 30 ml buffer and the preparation is frozen and stored at −20° C.
The membrane preparation is thawed and centrifuged at 2° C. for 10 min at 27,000× g. The pellet is washed twice with 20 ml 50 mM Tris-citrate, pH 7.1 using an Ultra-Turrax homogeniser and centrifuged for 10 min at 27,000× g. The final pellet is resuspended in 50 mM Tris-citrate, pH 7.1 (500 ml buffer per g of original tissue), and then used for binding assays. Aliquots of 0.5 ml tissue are added to 25 μl of test solution and 25 μl of ^3H-FNM (1 nM, final concentration), mixed and incubated for 40 min at 2° C., Non-specific binding is determined using Clonazepam (1 μM, final concentration). After incubation the samples are added 5 ml of ice-cold buffer and poured directly onto Whatman GFIC glass fibre filters under suction and immediately washed with 5 ml ice-cold buffer. The amount of radioactivity on the filters is determined by conventional liquid scintillation counting. Specific binding is total binding minus non-specific binding.
The test value will be given as IC50 (the concentration (μM) of the test substance which inhibits the specific binding of ^3H-FNM by 50%). [formula]
Co is specific binding in control assays, and
Cx is the specific binding in the test assay.
(The calculations assume normal mass-action kinetics).

[2] = tested on: GABAA receptor-ion channel complex (forebrain); assay: In vivo inhibition of 3H-FNM binding; design: species or system mouse; details: female NMRI mice, test substance i.v., inhibition of specific [3H]FNM binding in forebrain
Method: 13B: In vivo inhibition of ^3H-FNM binding
[^3H]FNM can also be used for in vivo receptor labelling studies in mouse. Accumulation of [^3H]FNM binding will occur all over the brain as GABAA receptors are widely distributed.
All test substances used are solutions prepared in 10% TWEEN 80. Groups of three female NMRI mice (25 g) are injected i.v. via the tail vein with 5.0 μCi of [3H]FNM in 0.2 ml saline. Fifteen min after injection with [^3H]FNM the test substance is administered i.v. Twenty min after injection with [^3H]FNM, mice are killed by decapitation, the forebrains rapidly excised and homogenized in 12 ml of ice-cold 50 mM Tris-citrate, pH 7.1 using an Ultra-Turrax homogenizer. Three aliquots of 1 ml are immediately filtered through GF/C glass fibre filters and washed with 2×5 ml of ice-cold buffer. The amounts of radioactivity on the filters and in 200 μl of the homogenate are determined by conventional scintillation counting. Groups of untreated mice serves as controls. To determine non-specific binding groups of mice are injected with Clonazepam (25 mg/kg) i.p. 10 min before [3H]FNM injection. Specific binding is the amount of binding in controls minus the amount of binding in Clonazepam treated mice.
The ED50 value is determined from dose response curves. […] [formula]
where Co is specific binding in controls and Cx is the specific binding in mice treated with test substance.

[3] = tested on: clonic convulsions induced by pentylenetetrazol (PTZ); assay: PTZ clonic convulsions; assay type: in vivo; details: female NMRI mice; for ED100: i.v., dose increasing the PTZ threshold to 100 mg PTZ/kg (linear regression); for ptz threshold at 30 mg/kg: test substance 30 mg/kg i.v., PTZ infused after 5 min, vehicle threshold 37-39 mg PTZ/kg
Method: The purpose of this test is to show antagonism of clonic convulsions induced by pentylenetetrazol (PTZ). PTZ induces clonic convulsions in mice after i.v. infusion. Antagonism of PTZ-induced convulsions is a measure for the agonistic character of ligands for the benzodiazepine recognition site.
Female NMRI mice (Bomholdtgaard, Ry), 20 g, 6 mice in each group are administered i.v. with vehicle or test substance. After five minutes the PTZ-solution is infused intravenously at a speed of 0.7 ml/minute through a cannula placed in the tail vein. The time from initiation of the infusion to appearance of clonic convulsions is recorded.
The dose of PTZ required for inducing convulsion in each mouse is calculated as PTZ/kg body weight. Means ±sd for each experimental group of 6 mice is calculated. ED100 is calculated by linear regression expressing the dose increasing the PTZ threshold to 100 mg PTZ/kg.
The threshold of vehicle treated controls is in the range of 37-39 mg PTZ/kg. As a control in each series of experiments PTZ is infused into 6 vehicle treated mice.

Row | melting point | Structure (SMILES) | further results
1 | 105 to 110 °C | COCCOC(=O)c1ccc2c(c1)ncn2-c1cccc(N2CCN(CC(=O)O)CC2)c1 | –
2 | 121 to 122 °C | CSCCOC(=O)c1ccc2c(c1)ncn2-c1cccc(N2CCN(C)CC2)c1 | –
3 | 47 °C (dec.) | CN(C)CCOC(=O)c1ccc2c(c1)ncn2-c1cccc(N2CCN(CC(=O)O)CC2)c1 | –
4 | 160 to 162 °C | COC(=O)c1ccc2c(c1)ncn2-c1cccc(N2CCN(CC#N)CC2)c1 | –
5 | 91 to 93 °C | COCCOC(=O)c1ccc2c(c1)ncn2-c1cccc(N2CCN(CC#N)CC2)c1 | –
6 | 131 to 132 °C | CC(C)(C)OC(=O)CN1CCN(c2cccc(-n3cnc4cc(-c5ccoc5)ccc43)c2)CC1 | –
7 | 90 to 94 °C | CCOC(=O)CN1C(C)CN(c2cccc(-n3cnc4cc(C(=O)OCCOC)ccc43)c2)CC1C (centres unmarked) (as salt: HCl) | –
8 | 132 to 134 °C | COCCOC(=O)c1ccc2c(c1)ncn2-c1cccc(-n2cnc(C(=O)OC)c2)c1 (as salt: HCl) | –
9 | 182 to 192 °C | O=C(OCCO)c1ccc2c(c1)ncn2-c1cccc(N2CCN(CCO)CC2)c1 (as salt: HCl) | –
10 | 202 to 208 °C | CCN1C(C)CN(c2cccc(-n3cnc4cc(C(=O)OCCOC)ccc43)c2)CC1C (centres unmarked) (as salt: HCl) | –
11 | 179 to 180 °C | CCN1CC=C(c2cccc(-n3cnc4cc(C(=O)OCCOC)ccc43)c2)CC1 (as salt: HCl) | –
12 | 123 to 125 °C | COCCOC(=O)c1ccc2c(c1)ncn2-c1cccc(C2CCN(C)CC2)c1 (as salt: HCl) | –
13 | 139 to 140 °C | COCCOC(=O)c1ccc2c(c1)ncn2-c1cccc(C2CCN(C(C)=O)CC2)c1 (as salt: HCl) | –
14 | 179 to 202 °C | COC(=O)c1ccc2c(c1)ncn2-c1cccc(N2CCNCC2)c1 (as salt: HCl) | –
15 | 218 to 224 °C | COCCOC(=O)c1ccc2c(c1)ncn2-c1cccc(N2CCN(CC(=O)OC(C)(C)C)CC2)c1 (as salt: HCl) | –
16 | 191 to 205 °C | COCCOC(=O)c1ccc2c(c1)ncn2-c1cccc(N2CCNCC2)c1 (as salt: HCl) | –
17 | 155 to 159 °C | COCCOC(=O)c1ccc2c(c1)ncn2-c1cccc(N2CCN(CC(=O)OC(C)C)CC2)c1 (as salt: HCl) | –
18 | 210 to 220 °C | COC(=O)c1ccc2c(c1)ncn2-c1cccc(N2CCN(CC(=O)O)CC2)c1 (as salt: HCl) | –
19 | 185 to 186 °C | COCCOC(=O)c1ccc2c(c1)ncn2-c1cccc(N2CCN(Cc3ccc(Cl)s3)CC2)c1 (as salt: HCl) | –

Row | melting point | Structure (SMILES) | further results
20 | 128 to 139 °C | CN1CCN(c2cccc(-n3cnc4cc(C(=O)OCCO)ccc43)c2)CC1 (as salt: HCl) | –
21 | 150 to 155 °C | COC(=O)CN1CCN(c2cccc(-n3cnc4cc(C(=O)OCCO)ccc43)c2)CC1 (as salt: HCl) | –
22 | 103 to 125 °C | CCOC(=O)CN1CCN(c2cccc(-n3cnc4cc(C(=O)OCCO)ccc43)c2)CC1 (as salt: HCl) | –
23 | 202 to 204 °C | CCN(CC)C(=O)CN1CCN(c2cccc(-n3cnc4cc(C(=O)OCCOC)ccc43)c2)CC1 (as salt: HCl) | –
24 | 172 to 177 °C | COCCOC(=O)c1ccc2c(c1)ncn2-c1cccc(N2CCN(Cc3ccccc3)CC2)c1 (as salt: HCl) | –
25 | 161 to 164 °C | COCCOC(=O)c1ccc2c(c1)ncn2-c1cccc(N2CCN(CC(=O)OC)CC2)c1 (as salt: HCl) | –
26 | 211 to 212 °C | COCCOC(=O)c1ccc2c(c1)ncn2-c1cccc(N2CCN(CC(N)=O)CC2)c1 (as salt: HCl) | –
27 | 268 to 270 °C | NC(=O)CN1CCN(c2cccc(-n3cnc4cc(C(=O)OCCO)ccc43)c2)CC1 (as salt: HCl) | –
28 | 153 to 163 °C | COC(=O)c1ccc2c(c1)ncn2-c1cccc(N2CCN(Cc3ccccc3)CC2)c1 (as salt: HCl) | –
29 | 149 to 154 °C | CCN(CC)C(=O)CN1CCN(c2cccc(-n3cnc4cc(C(=O)OCCO)ccc43)c2)CC1 (as salt: HCl) | –
30 | 139 to 141 °C | COCCOC(=O)c1ccc2c(c1)ncn2-c1cccc(N2CCN(CCOCc3ccccc3)CC2)c1 (as salt: HCl) | –
31 | 196 to 198 °C | COCCOC(=O)c1ccc2c(c1)ncn2-c1cccc(N2CCN(Cc3nnnn3C)CC2)c1 (as salt: HCl) | –
32 | 166 to 168 °C | CCN1CCN(c2cccc(-n3cnc4cc(C(=O)OCCOC)ccc43)c2)CC1 (as salt: HCl) | –
33 | 248 to 250 °C | CCOC(=O)N1CCN(Cc2cccc(-n3cnc4cc(-c5ccoc5)ccc43)c2)CC1 (as salt: HCl) | –
34 | 198 to 200 °C | CN1CCCC1COC(=O)c1cccc(-n2cnc3cc(-c4ccoc4)ccc32)c1 (centres unmarked) (as salt: HCl) | –
35 | 136 to 137 °C | COCCOC(=O)c1ccc2c(c1)ncn2-c1cccc(N2CCN(C)CC2)c1 (as salt: maleate) | –
36 | – | COC(=O)c1ccc2c(c1)ncn2-c1cccc(Cn2ccnc2)c1 [Compound 1l, Methyl 1-(3-(1-imidazolylmethyl)-phenyl)-benzimidazole-5-carboxylate] | IC50 [1]: 12 nM; In vivo binding ED50 [2]: 0.75 mg/kg; ED100 [3]: 17 mg/kg; ptz threshold at 30 mg/kg [3]: 120 mg/kg
37 | – | CCOC(=O)CN1CCN(Cc2cccc(-n3cnc4cc(-c5ccoc5)ccc43)c2)CC1 [Compound 7f, 5-(3-Furanyl)-1-(3-(1-ethoxycarbonylmethyl-4-piperazinylmethyl)-phenyl)-benzimidazole] | IC50 [1]: 0.6 nM; In vivo binding ED50 [2]: 0.17 mg/kg; ED100 [3]: 2.7 mg/kg; ptz threshold at 30 mg/kg [3]: 120 mg/kg

Row | Structure (SMILES) | melting point | further results
38 | CCOC(=O)CN1CCN(c2cccc(-n3cnc4cc(C(=O)OCCOC)ccc43)c2)CC1 (as salt: HCl) [Compound 1b, 2-Methoxyethyl 1-(3-(4-(ethoxy-carbonyl-methyl)-1-piperazinyl)-phenyl)-benzimidazole-5-carboxylate] | 161 to 163 °C | –
39 | CC(=O)N1CCN(CCOC(=O)c2cccc(-n3cnc4cc(-c5ccoc5)ccc43)c2)CC1 (as salt: HCl) [Compound 7j, 2-(1-Acetyl-4-piperazinyl)-ethyl 3-(5-(3-furanyl)-1-benzimidazolyl)-benzoate] | 167 to 168 °C | –
40 | COC(=O)c1cn(-c2cccc(-n3cnc4cc(-c5ccoc5)ccc43)c2)cn1 [Compound 7c, 5-(3-Furanyl)-1-(3-(4-methoxycarbonyl-1-imidazolyl)-phenyl)-benzimidazole] | 221 to 223 °C | IC50 [1]: 0.7 nM; In vivo binding ED50 [2]: 0.43 mg/kg; ED100 [3]: 20 mg/kg; ptz threshold at 30 mg/kg [3]: 110 mg/kg
